Data taken from patent US20260216141A1, “NECROSIS INHIBITOR” (LINKGEVITY LIMITED, priority 2023, published 2026).
“Also recorded” adds a separate entry of the source. Read-outs that look alike come from different tables or passages of the source.

Columns and labels:
Hepg2s spheroids = format: cell-based; settings: for necrotic core formation / cell death necrosis relative to control: hypoxic and nutrient deprivation stress, DRAQ7, up to day 7
Experimental: Media changes were on alternative days. […] DMSO controls were added on each plate.
In some of the following Examples, human 3D cell culture was employed using liver Hepg2 cells. 3D cell culture is known to accurately replicate a cell's native environment. During embryonic development, cells aggregate and self-assemble into complex multi-cellular structures. The same aggregation process can likewise occur in in vitro culture systems if cell-cell cohesion is favoured over cell attachment to a substrate. The resulting 3D cell culture aggregates are known as spheroids. […] A standard method of spheroid formation in U-bottom low adhesion plates was used in the Examples herein.
This is because, as the spheroids grow, only the peripheral cells obtain oxygen and nutrients from the cell culture medium. The inner cells die from cell death necrosis, with the formation of large necrotic cores (observable though use of standard live dead stains). Thus, necrotic core formation represents a naturally occurring hypoxic and nutrient stress. This resembles multiple forms of shock in humans where blood flow carrying nutrients and oxygen is disrupted to certain cells, tissues and/or organs.

[1] = known in the art; cited from earlier work
[2] = system: human intestinal fibroblast primary cell spheroids; assay: Human intestinal fibroblast primary cell spheroids, hydrogen peroxide oxidative stress, Calcein AM/Ethidium homodimer-1 stain; format: cell-based; settings: hydrogen peroxide 800 μM for 6 hrs; preventative; Dantrolene 100 μM, retinoic acid 10, 20 or 40 μM, Nifedipine 10 μM
Experimental: Media changes were on alternative days. […] Drug treatment was done overnight prior stress. […] Two repeats of all conditions were performed. Each repeat used 31 organoids per condition. […] DMSO controls were assessed in parallel on each plate.
Thus far, the Examples have focused on hypoxic and nutrient deprivation stressors. To test other stressors, this Example uses an oxidative stress/toxin stress model, where human intestinal fibroblast (HIF) primary cell spheroids were exposed to hydrogen peroxide. The standard viability Calcein AM/Ethidium homodimer-1 staining was used as a marker of cell death. Following 800 μM hydrogen peroxide exposure for 6 hrs, just over 25% of cells were dead in the control (i.e. relative to Triton X-100 that kills all cells).

Compound | necrotic core formation / cell death necrosis relative to control (Hepg2s spheroids; Hepg2s spheroids) | other results
COc1ccc([C@@H]2N[C@H](C(=O)O)Cc3c2[nH]c2ccccc32)cc1CN1CCN(c2ccccc2F)CC1 (relative stereo) [cis-Ned 19] | no significant difference from the control; also recorded: no significant effect on level of cell death necrosis | –
COc1ccc([C@H]2N[C@H](C(=O)O)Cc3c2[nH]c2ccccc32)cc1CN1CCN(c2ccccc2F)CC1 (relative stereo) [trans-Ned 19] | no significant difference from the control; also recorded: no significant effect on level of cell death necrosis | –
CC(=O)OCOC(=O)CN(CC(=O)OCOC(C)=O)c1ccccc1OCCOc1ccccc1N(CC(=O)OCOC(C)=O)CC(=O)OCOC(C)=O [BAPTA-AM, 2-[N-[2-(acetyloxymethoxy)-2-oxoethyl]-2-[2-[2-[bis [2-(acetyloxymethoxy)-2-oxoethyl]amino]phenoxy]ethoxy]anilino]acetic acid acetyloxymethyl ester] | – | toxicity at earlier time points (Hepg2s spheroids; time points earlier than day 7): some milder toxicity in some trials; necrosis suppression (Hepg2s spheroids; x8 dosage, 25 μM, day 7): significant necrosis suppression; cell culture dosages considered maximum dosages which result in minimum toxicity [1]: 1 to 3 µM
O=C(O)CN(CCN(CC(=O)O)CC(=O)O)CCN(CC(=O)O)CC(=O)O [DTPA, diethylenetriaminepentaacetic acid] | – | toxicity at earlier time points (Hepg2s spheroids): some mild, but not statistically significant, toxicity; dosage needed to suppress necrosis (Hepg2s spheroids; Hepg2s spheroids, day 7): 4000 µM; cell culture dosages considered maximum dosages which result in minimum toxicity [1]: around 50 μM
O=C1CN(/N=C/c2ccc(-c3ccc([N+](=O)[O-])cc3)o2)C(O)=N1 [Dantrolene] | no significant difference from the control; also recorded: no significant effect on necrosis inhibition; also recorded: no significant effect on cell necrosis relative to control | necrotic core formation / cell death necrosis relative to control (Hepg2s spheroids; Hepg2s spheroids, listed as dantrolene): no significant difference to control; necrosis following oxidative stress relative to control [2]: either no significant difference or a worse effect to control
CCCCC/C=C\C/C=C\C/C=C\C/C=C\CCCC(=O)O [arachidonic acid] | No significant necrosis prevention and/or treatment | –
CC1(C)[C@@H](OC(=O)CCC(=O)O)CC[C@]2(C)[C@H]3C(=O)C=C4[C@@H]5C[C@@](C)(C(=O)O)CC[C@]5(C)CC[C@@]4(C)[C@]3(C)CC[C@@H]12 [carbenoxolone] | No significant necrosis prevention and/or treatment | –
O=C(O)c1ccccc1Nc1cccc(C(F)(F)F)c1 [flufenamic acid] | No significant necrosis prevention and/or treatment | –
CC1(C)[C@@H](O)CC[C@]2(C)[C@H]3C(=O)C=C4[C@@H]5C[C@@](C)(C(=O)O)CC[C@]5(C)CC[C@@]4(C)[C@]3(C)CC[C@@H]12 [glycyrrhetinic acid] | No significant necrosis prevention and/or treatment | –
FC(F)(F)C(Cl)Br (stereo not shown) [halothane] | No significant necrosis prevention and/or treatment | –
CCCCCCCO [heptanol] | No significant necrosis prevention and/or treatment | –
CCCCC/C=C\C/C=C\CCCCCCCC(=O)O [linoleic acid] | No significant necrosis prevention and/or treatment | level of cell death / toxicity in isolation relative to control (Hepg2s spheroids): greater toxicity relative to control
Cc1ccc(Cl)c(Nc2ccccc2C(=O)O)c1Cl [meclofenamic acid] | No significant necrosis prevention and/or treatment | –
OC(c1cc(C(F)(F)F)nc2c(C(F)(F)F)cccc12)C1CCCCN1 (stereo not shown) [mefloquine] | No significant necrosis prevention and/or treatment | –
O=C(O)c1cccnc1Nc1cccc(C(F)(F)F)c1 [niflumic acid] | No significant necrosis prevention and/or treatment | –
CCCCCCCCO [octanol] | No significant necrosis prevention and/or treatment | level of cell death / toxicity in isolation relative to control (Hepg2s spheroids; compound in isolation, most trials): greater toxicity relative to control
CCCCCCCC/C=C\CCCCCCCC(N)=O [oleamide] | No significant necrosis prevention and/or treatment | –
CCCCCCCC/C=C\CCCCCCCC(=O)O [oleic acid] | no significant difference from the control; also recorded: No significant necrosis prevention and/or treatment; also recorded: no significant effect on cell necrosis relative to control | –
CCN(CC)CCOC(=O)c1ccc(N)cc1 [procaine] | no significant difference from the controls; also recorded: no significant effect on level of cell death necrosis | –
C=C[C@H]1C[N@@]2CC[C@H]1C[C@@H]2[C@@H](O)c1ccnc2ccc(OC)cc12 [quinidine] | No significant necrosis prevention and/or treatment | –
C=C[C@H]1C[N@@]2CC[C@H]1C[C@H]2[C@H](O)c1ccnc2ccc(OC)cc12 [quinine] | No significant necrosis prevention and/or treatment | –
N.N.N.N.N.N.N.N.N.N.N.N.N.N.[Cl-].[Cl-].[Cl-].[Cl-].[Cl-].[Cl-].[O-2].[O-2].[Ru+3].[Ru+3].[Ru+4] [ruthenium red] | no significant difference from the controls; also recorded: no significant effect on level of cell death necrosis | –
ryanodine | no significant difference from the control; also recorded: no significant difference to control | –
